# Tested on: hRPTEC cells
# Test: TACR1 inhibitor: survival of hRPTEC cells under hypoxia
# Type: cell-based
# Details: 0.2% oxygen 48 hours, low glucose DMEM, inhibitor added 1 hour before; methylene blue; FIG. 7
# Experimental: The following protocol was used: Day 0: hRPTEC were seeded on two 96-well plates, 2×10^4 cells/well. Day 1: Keratinocyte medium was removed from the plates and fresh DMEM containing low glucose and the indicated concentration of the TACR1 inhibitor (L-733,060) was added. Each concentration was examined in quadruplicate fashion. The two plates were incubated in the presence of the inhibitor at normal growth conditions for 1 hour, at which time one of the plates was transported to a chamber that contained 0.2% oxygen for 48 hours, while the other remained at normoxia for the same period of time. Day 3: The cells were rescued from hypoxia and the plates were immediate fixed and stained with methylene blue to assess survival. The percent of stain of the corresponding cells incubated in normoxic conditions minus the background (non-specific dye absorption by empty wells) was calculated as a measure of cell resistance to the hypoxia. The results were plotted as a fold increase in resistance over that of cells not treated with L-733,060.
row,Compound,survival of hRPTEC cells under hypoxia
1,"FC(F)(F)c1cc(CO[C@H]2CCCN[C@H]2c2ccccc2)cc(C(F)(F)F)c1 [L-733,060, (2S,3S)-3-{[3,5-bis(trifluoromethyl)benzyl]oxy}-2-phenylpiperidine]",significantly increases survival

# Tested on: HK-2 cells
# Test: Combined inhibition of RhoB (shRNA) and TACR1 (L-733,060): HK-2 survival in hypoxia
# Type: cell-based
# Details: L-733,060 5 μM on HK2-RhoB cells (shRNA to RhoB) vs either one alone; 0.2% oxygen 48 hours; FIG. 9
# Experimental: To obtain the data presented in FIG. 9, HK-2 cells were trasnduced with either a construct expressing an shRNA to RhoB (cell line “HK2-RhoB”) or the corresponding empty vector (cell line “HK2-vector”). The survival of cells in hypoxic condition with or without addition of TACR1 inhibitor was evaluated using the following protocol: Day 0: HK-2 cells were seeded on two 96-well plates, 3×10^4 cells/well. Day 1: Keratinocyte medium was removed from the plates and fresh DMEM containing low glucose. TACR1 inhibitor (L-733,060; 5 μM) was added to half of the wells of either HK2-RhoB or HK2-vector. One hour later one of the plates was transported to a chamber that contained 0.2% oxygen for 48 hours, while the other remained at normoxia for the same period of time. Day 3: The cells were rescued from hypoxia and the plates were immediate fixed and stained with methylene blue to assess survival. Results were then graphed as the percent of stain of the corresponding cells incubated in normoxic conditions minus the background (non-specific dye absorption by empty wells).
row,Compound,"protection from hypoxia, combined inhibition of RhoB and TACR1"
1,"FC(F)(F)c1cc(CO[C@H]2CCCN[C@H]2c2ccccc2)cc(C(F)(F)F)c1 [L-733,060, (2S,3S)-3-{[3,5-bis(trifluoromethyl)benzyl]oxy}-2-phenylpiperidine]",better protection that inhibition of either one alone

# Tested on: HK-2 cells
# Test: Individual shRNA screening: survival of transduced HK-2 cells under hypoxia (Protocol 2)
# Type: cell-based, human
# Details: viable shRNA-transduced HK-2 cells after hypoxia (0.2% oxygen 48 hours, low glucose DMEM) vs control HK-2 cells; 2-6 independent experiments; methylene blue
# Source text: shRNA of the invention can be expressed from any suitable vector such as a recombinant viral vector either as two separate, complementary RNA molecules, or as a single RNA molecule with two complementary regions. In this regard, any viral vector capable of accepting the coding sequences for the shRNA molecule(s) to be expressed can be used. Examples of suitable vectors include but are not limited to vectors derived from adenovirus, adeno-associated virus, retroviruses (e.g, lentiviruses, Rhabdoviruses, murine leukemia virus), herpes virus, and the like. A preferred virus is a lentivirus. The tropism of the viral vectors can also be modified by pseudotyping the vectors with envelope proteins or other surface antigens from other viruses. As an alternative to expression of shRNA in cells from a recombinant vector, chemically stabilized shRNA or siRNAs may also be used administered as the agent in the method of the invention. Vectors for expressing shRNA which in turn produces siRNA once introduced into a cell are commercially available. Further, shRNAs which facilitate produce of siRNA targeted to virtually every known human gene are also known and are commercially available. In embodiments specific shRNAs are those which comprise polynucleotide sequences presented in Table 2, wherein those sequences are targeted to the genes as indicated. In particular, Table 2 provides the sequence of segments of shRNAs that target the HRGs of the present disclosure. […] “RPCI” under source designates the “shRNA Resource of Roswell Park Cancer Institute” which distributes shRNAs from commercial vendors. The catalog # column signifies a reference under which each of the shRNAs are made available to the public. The SEQ ID # column refers to the sequence listing that forms a part of this disclosure. The polynucleotide sequences provided in Table 2 are cDNA sequences that recognize the target gene mRNA via shRNA. It will be recognized by those skilled in the art that the shRNAs used in the Examples presented herein have the identical sequences as listed in Table 2, except for substitution of each thymine with uracil. It will be also recognize that each of the shRNAs as used in practice has additional sequences that are typical of shRNA constructs, but that the sequences listed in Table 2 are the ones that are antisense to the mRNA of the indicated HRGs.
# Protocol 2: Individual shRNA screening.
# Cell Preparation: Lentiviral vectors containing various shRNAs of interest were obtained from commercial sources, and packaged in 293T cells. HK-2 cells were then transduced with these expression constructs and selected for the presence of a vector-encoded antibiotic resistance marker.
# Hypoxia Protocol: Day 0: HK-2 cells containing individual shRNAs were seeded in triplicate on two 96-well plates, 3×10^4 cells/well. Negative controls included uninfected cells or cells infected with a corresponding empty vector. Day 1: Keratinocyte medium was removed from the plates and fresh DMEM containing low glucose was added. One of the plates was then transported to a chamber that contained 0.2% oxygen for 48 hours, while the other remained at normoxia for the same period of time. Day 3: The cells were rescued from hypoxia and the plates were immediate fixed and stained with methylene blue to assess survival. Results were then graphed as the percent of stain of the corresponding cells incubated in normoxic conditions minus the background (non-specific dye absorption by empty wells).
row,Compound,geometric mean of fold increase in cell number [fold]
1,18 (ATTGGTTTGATTTCCTCCC; expressed or natural sequence) [compound 18],18
2,25 (TTCTCATAAATCTTGTTCG; expressed or natural sequence) [compound 25],15
3,22 (TACTGAACACGATCAGCAG; expressed or natural sequence) [compound 22],9
4,19 (AACATGTTCATAACCAGGTCG; expressed or natural sequence) [compound 19],26
5,20 (TCTTCTAAGCACTGAAGAG; expressed or natural sequence) [compound 20],11
6,27 (TTGGATCTGTAAAGACGCCAC; expressed or natural sequence) [compound 27],5
7,23 (ATAAATATCTGTTCCCAAG; expressed or natural sequence) [compound 23],15
8,11 (TCTTGCCAAGGTTTATGGC; expressed or natural sequence) [compound 11],8
9,15 (ATGACATTGATCTGATCCA; expressed or natural sequence) [compound 15],23
10,24 (TTCTTGTAAATAATGAGCG; expressed or natural sequence) [compound 24],5
11,14 (ATCTCCTGAATATTTCAGCAG; expressed or natural sequence) [compound 14],13
12,13 (TGATGTCTGGTGTAGTAGG; expressed or natural sequence) [compound 13],10
13,17 (AAACGCTAAAGATGAGTCC; expressed or natural sequence) [compound 17],7
14,26 (TTCCAGTAGAAGTAGTACT; expressed or natural sequence) [compound 26],12
15,21 (TTACTGAACACGATCAGCAGG; expressed or natural sequence) [compound 21],22
16,16 (TCTTCAACAGAATCCACTT; expressed or natural sequence) [compound 16],6
17,12 (ATCTCTTTGGACTTGAAGC; expressed or natural sequence) [compound 12],9

# Tested on: HKC8 cells
# Test: TACR1 inhibitor: protection of HKC8 cells under hypoxia
# Type: cell-based
# Details: 5 μM, 0.2% oxygen 48 hours, low glucose DMEM; methylene blue; FIG. 11
# Experimental: We also tested the protective activity of a chemical TACR1 inhibitor in HKC8 cells using the following protocol. Day 0: HKC8 cells were seeded in complete keratinocyte medium at a density of 2×10^4 cells per well on two 96-well plates. Day 1: Keratinocyte medium was removed from the plates and fresh DMEM containing low glucose and 5 μM TACR1 inhibitor (L-733,060) was added where indicated. Treated and untreated cells were present on the plates in triplicate. The two plates were incubated in the presence of the inhibitor at normal growth conditions for 1 hour, at which time one of the plates was transported to a chamber that contained 0.2% oxygen for 48 hours, while the other remained at normoxia for the same duration. Day 3: Following exposure to hypoxia, the cells were rescued and the plates were immediately fixed and stained with methylene blue to assess survival. Results were then graphed as the percent of stain of the corresponding cells incubated in normoxic conditions minus the background (non-specific dye absorption by empty wells).
row,Compound,protection against the effects of hypoxia on HKC8 cells
1,"FC(F)(F)c1cc(CO[C@H]2CCCN[C@H]2c2ccccc2)cc(C(F)(F)F)c1 [L-733,060, (2S,3S)-3-{[3,5-bis(trifluoromethyl)benzyl]oxy}-2-phenylpiperidine]",strongly protective

# Tested on: kidneys
# Test: Mouse model of acute renal ischemia, plasma markers of kidney damage
# Type: in vivo
# Details: i.p. 30 mg/kg or 90 mg/kg 30 minutes before 25 min ischemia of both kidneys, 24 hrs after reperfusion, FIG. 8
# Experimental: In particular, the protective effects of chemically inhibiting TACR1 were examined in a mouse model of acute renal ischemia using the following protocol: i. 30 minutes before the surgery, mice received an i.p. injection of a TACR1 inhibitor (L-733,060) at either 30 mg/kg or 90 mg/kg, or of the respective vehicle (saline). ii. Under general anesthesia with Ketamin/Rompun, the mice were subjected to 25 min of ischemic of both kidneys. Each of the 2 kidneys was exposed through a flank incision. The kidney pedicle was clamped with atraumatic clamps for 25 min. iii. Mice were kept in an incubator at constant temperature 36 C during the 25 min of ischemia. After 25 min of ischemia, clamps were removed and wounds were closed. iv. 24 hrs after reperfusion blood samples were taken and mice were sacrificed. v. The levels of biochemical markers of kidney damage were measured in the plasma of the collected blood. Specifically, creatinine, neutrophil gelatinase-associated lipocalin (NGAL), osteopontin and urea (blood urea nitrogen) were measured.
row,Compound,"signs of kidney damage (plasma creatinine, NGAL, osteopontin, urea)"
1,"FC(F)(F)c1cc(CO[C@H]2CCCN[C@H]2c2ccccc2)cc(C(F)(F)F)c1 [L-733,060, (2S,3S)-3-{[3,5-bis(trifluoromethyl)benzyl]oxy}-2-phenylpiperidine]",decreases the appearance of signs of kidney damage

# Source: patent US9540640B2, “Compositions and methods for inhibiting hypdxia induced damage” (Health Research, Inc., priority 2012, dated 2017)
